The values below come from ChEMBL document CHEMBL1125567, “Novel cAMP PDE III inhibitors: 1,6-naphthyridin-2(1H)-ones” (J Med Chem, 1992).

SMILES strings stand for the structures.

In test [1] the test system is Phosphodiesterase 3 (Canis lupus familiaris). Kind of test: In vitro inhibition of cAMP PDE III by the compound at a concentration of 10 uM.
The target of test [2] is Phosphodiesterase 3 (Canis lupus familiaris). Kind of test: In vitro inhibitory activity against cAMP PDE III.
Test [3] has as its system Phosphodiesterase 3 (Canis lupus familiaris). Kind of test: In vitro inhibition of cAMP Phosphodiesterase 3 at a concentration of 10 uM.
For test [4], the target named is Phosphodiesterase 3 (Canis lupus familiaris). Kind of test: Inhibition of cAMP Phosphodiesterase 3.
In test [5] the test system is Phosphodiesterase 3 (Canis lupus familiaris). Kind of test: Inhibition of cAMP Phosphodiesterase 3 at 10 uM.
The target in test [6] is Phosphodiesterase 3 (Canis lupus familiaris). Kind of test: Inhibition of cAMP PDE 3.
Test [7] has the same target. Kind of test: Inhibition of cAMP PDE 3. The source holds these as a separate data set.
Test [8] relates to Phosphodiesterase 3 (Canis lupus familiaris). Kind of test: Inhibition of cAMP PDE 3 at 10 uM.

The inhibition is the relative decrease from the control value, in per cent. Low values mean a weak effect, high ones a strong effect. In general, IC50 refers to the midpoint of a concentration-inhibition curve. A lower IC50 goes with inhibition by little substance. The compound `Oc1ccc2c(-c3ccncc3)nccc2n1` gave an inhibition in test [1] of 78%. Moreover, in test [2], the IC50 was found to be 2200 nM. In turn, `Oc1ccc2c(-c3ccccc3)nccc2n1` registered an inhibition in test [1] of 78%. Moreover, the IC50 in test [2] came to 1400 nM. In turn, `OCc1cn(-c2nccc3nc(O)ccc23)cn1` registered an inhibition in test [3] of 58%. With `Cc1nccc2nc(O)c(N)cc12`, the inhibition in test [3] is 59%. On the same count and under the same terms, the value for `Oc1ccc2c(-n3ccnc3)nccc2n1` was 56%. `Cc1nccc2nc(S)ccc12` yielded an inhibition in test [3] of 81%. Further, in test [4], the IC50 was 960 nM. With `Nc1ccc(-c2nccc3nc(O)ccc23)cc1`, in test [1], the inhibition was 91%. The compound also displayed an IC50 in test [2] of 230 nM.

In turn, `COc1ccc2c(C)nccc2n1` gave an inhibition in test [3] of 21%.

On to `Cc1nccc2nc(Cl)ccc12`, for which the inhibition in test [5] worked out at 18%. In test [1], `CCc1nccc2nc(O)ccc12` registered an inhibition of 87%. Besides, the IC50 in test [2] is 40 nM. Consider `Cc1nccc2nc(O)c(C(N)=O)cc12`, for which, in test [3], the inhibition came to 39%. `Oc1ccc2c(-n3cnc(C(F)(F)F)c3)nccc2n1`: in test [3], the inhibition is 13%. For the compound `Cc1nccc2nc(O)c(O)cc12`, the inhibition in test [3] was 51%. In test [3], `Cc1cnn(-c2nccc3nc(O)ccc23)c1` showed an inhibition of 30%.

Turning to `Oc1ccc2c(-c3cccs3)nccc2n1`, the inhibition in test [1] worked out at 79%. In addition, the IC50 in test [2] amounted to 140 nM. In turn, `Cn1c(=O)ccc2c(-c3ccccc3)nccc21` returned an inhibition in test [3] of 36%. `Oc1ccc2c(Br)nccc2n1` registered an inhibition in test [5] of 70%. The same compound returned an IC50 in test [6] of 170 nM.

Regarding `Cc1nccc2nc(N)ccc12`, the inhibition in test [3] worked out at 24%.

In test [3], `Oc1ccc2c(-c3ccc(Br)cc3)nccc2n1` came in with an inhibition of 55%. `CC(C)Cc1nccc2nc(O)ccc12` came in with an inhibition in test [1] of 81%. This compound returned an IC50 in test [2] of 570 nM.

Regarding `Cc1ncc([N+](=O)[O-])n1-c1nccc2nc(O)ccc12`, the inhibition in test [3] stood at 18%.

`Oc1ccc2c(-n3cccn3)nccc2n1` displayed an inhibition in test [3] of 39%.

For `O=[N+]([O-])c1cn(-c2nccc3nc(O)ccc23)cn1`, the inhibition in test [3] was 46%. The same measure, in the same setting: in the case of `Cc1nccc2c1ccc(=O)n2C` it was 17%. The compound `CCCc1nccc2nc(O)ccc12` came in with an inhibition in test [1] of 83%. Also, in test [2], the IC50 amounted to 48 nM.

Consider `Oc1ccc(-c2nccc3nc(O)ccc23)cc1`, for which the inhibition in test [3] is 81%. Also, in test [4], the concentration for half-maximal inhibition (IC50) was found to be 600 nM. Regarding `Cc1nccc2nc(O)c(C#N)cc12`, the inhibition in test [3] is 52%. Still for that read-out and setting: in the case of `Cc1ncn(-c2nccc3nc(O)ccc23)n1` it was 39%. With `COc1ccc(-c2nccc3nc(O)ccc23)cc1`, the inhibition in test [1] came out at 64%. In test [2], this compound returned an IC50 of 3200 nM.

As for `Oc1ccc2c(-n3cnc(Br)c3)nccc2n1`, the inhibition in test [5] was 43%. In turn, `CC(=O)c1nccc2nc(O)ccc12` displayed an inhibition in test [1] of 85%. In test [2], the IC50 came to 1420 nM. Consider `Cc1cn(-c2nccc3c2ccc(=O)n3C)cn1`, for which the inhibition in test [3] was determined as 21%. With `Cc1c2ccc(=O)[nH]c2cc[n+]1[O-]`, the inhibition in test [1] is 65%. This compound also came in with an IC50 in test [2] of 3100 nM.

`Oc1ccc2c(-c3ccc(F)cc3)nccc2n1` yielded an inhibition in test [1] of 78%. In test [2], this compound yielded an IC50 of 940 nM. Consider `Oc1ccc2c(-n3cnc(-c4ccccc4)c3)nccc2n1`, for which, in test [3], the inhibition is 43%. With `Oc1ccc2c(-c3ccc(Cl)cc3)nccc2n1`, the inhibition in test [1] came out at 78%. The same compound registered an IC50 in test [2] of 300 nM.

In the case of `Oc1ccc2c(-n3cncn3)nccc2n1`, the inhibition in test [5] worked out at 50%. As to `OCc1nccc2nc(O)ccc12`, the inhibition in test [1] amounted to 58%. The 50% inhibitory concentration (IC50) in test [2] stood at 3700 nM.

With `Cc1nccc2[nH]c(=O)ccc12` [MEDORINONE], in test [7], the half-maximal inhibitory concentration (IC50) is 550 nM. For the same compound, the inhibition in test [8] amounted to 67%. Take `Cc1cc2nc(O)ccc2cn1`: the inhibition in test [3] came out at 53%. `Cc1ncn(-c2nccc3nc(O)ccc23)c1C` had an inhibition in test [3] of 28%. Same read-out and setting: in the case of `Cc1cc2cnccc2nc1O` it was 37%; in that of `Cc1nccn1-c1nccc2nc(O)ccc12`, 34%. As for `Cc1cn(-c2nccc3nc(O)ccc23)cn1`, the inhibition in test [1] was 72%. The compound further gave an IC50 in test [2] of 2800 nM. In turn, `Oc1ccc2c(-c3ccco3)nccc2n1` displayed an inhibition in test [1] of 74%. The half-maximal inhibitory concentration (IC50) in test [2] came to 140 nM. `Oc1ccc2cnccc2n1` displayed an inhibition in test [1] of 55%. The compound also yielded an IC50 in test [2] of 18800 nM. Compound `Oc1ccc2c(C(Cl)Cl)nccc2n1` showed an inhibition in test [5] of 83%. Further, the 50% inhibitory concentration (IC50) in test [6] was 160 nM.
